One experiment has as its target P2X7 receptor (Homo sapiens (Human), UniProt Q99572). The experiment in a line: Human P2X7 channel calcium-influx assay (Fluo-8 NW, FLIPR TETRA, Bz-ATP stimulation). The class given is cell-based. As to conditions: HEK-293 cells stably transfected with P2X7 receptor, Low Divalent Cation Assay Buffer, read-out: hP2X7 IC50. Here is the method: (§1) Extracellular binding of Bz-ATP to P2X7 receptor opens the channel and allows Ca^2+ influx into the cells. This Ca^2+ entry was measured in HEK-293 cells stably transfected with P2X7 receptor using Screen Quest™ Fluo-8 No Wash Calcium Assay Kit (AAt Bioquest®, cat. 36316). Once inside the cell, the lipophilic blocking groups of Fluo-8 are cleaved by non-specific cell esterases, resulting in a negatively-charged fluorescent dye that stays inside cells. Its fluorescence increases upon binding to calcium. When HEK-293/P2X7 cells are stimulated with Bz-ATP, Ca^2+ enters the cells and the fluorescence of Fluo-8 NW increases.
(§2) HEK-293 cells stably transfected with P2X7 receptor were seeded overnight in growth medium at 10,000 to 20,000 cells/well in 384-well plate. 24 hours later, the medium was removed, and the cells were pre-loaded at RT for 1 hour with 20 μL/w of Fluo-8 NW. Then 10 μL/w of test compounds and reference antagonist A438079 at 3X-concentration were injected with the […] and the kinetic response over a period of five minutes was monitored.

The target of the next experiment is mP2X7 (Mus musculus (Mouse), UniProt Q9Z1M0). The experiment is described as follows: mP2X7 channel calcium-influx assay (Fluo-8 NW, FLIPR TETRA, Bz-ATP stimulation). The class given is cell-based. As to the method:
as §1, §2

Chain of P2X7 receptor (Q99572 whole entry): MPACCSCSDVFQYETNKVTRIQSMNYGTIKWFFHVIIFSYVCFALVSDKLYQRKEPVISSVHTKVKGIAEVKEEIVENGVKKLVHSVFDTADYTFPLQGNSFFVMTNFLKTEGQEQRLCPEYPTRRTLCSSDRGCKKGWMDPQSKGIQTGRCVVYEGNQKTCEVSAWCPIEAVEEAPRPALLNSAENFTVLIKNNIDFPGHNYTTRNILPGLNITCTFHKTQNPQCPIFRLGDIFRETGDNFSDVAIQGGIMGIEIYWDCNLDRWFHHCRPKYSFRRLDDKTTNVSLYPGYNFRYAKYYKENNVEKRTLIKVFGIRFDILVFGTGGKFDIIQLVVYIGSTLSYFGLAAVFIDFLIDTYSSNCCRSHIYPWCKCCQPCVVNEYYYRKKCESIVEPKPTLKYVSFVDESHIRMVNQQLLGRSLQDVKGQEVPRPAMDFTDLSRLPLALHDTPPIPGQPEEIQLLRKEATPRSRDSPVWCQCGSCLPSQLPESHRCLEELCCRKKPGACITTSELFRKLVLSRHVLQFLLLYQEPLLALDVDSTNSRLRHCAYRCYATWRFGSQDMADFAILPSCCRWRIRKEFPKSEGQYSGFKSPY
Chain of mP2X7 (Q9Z1M0 whole entry): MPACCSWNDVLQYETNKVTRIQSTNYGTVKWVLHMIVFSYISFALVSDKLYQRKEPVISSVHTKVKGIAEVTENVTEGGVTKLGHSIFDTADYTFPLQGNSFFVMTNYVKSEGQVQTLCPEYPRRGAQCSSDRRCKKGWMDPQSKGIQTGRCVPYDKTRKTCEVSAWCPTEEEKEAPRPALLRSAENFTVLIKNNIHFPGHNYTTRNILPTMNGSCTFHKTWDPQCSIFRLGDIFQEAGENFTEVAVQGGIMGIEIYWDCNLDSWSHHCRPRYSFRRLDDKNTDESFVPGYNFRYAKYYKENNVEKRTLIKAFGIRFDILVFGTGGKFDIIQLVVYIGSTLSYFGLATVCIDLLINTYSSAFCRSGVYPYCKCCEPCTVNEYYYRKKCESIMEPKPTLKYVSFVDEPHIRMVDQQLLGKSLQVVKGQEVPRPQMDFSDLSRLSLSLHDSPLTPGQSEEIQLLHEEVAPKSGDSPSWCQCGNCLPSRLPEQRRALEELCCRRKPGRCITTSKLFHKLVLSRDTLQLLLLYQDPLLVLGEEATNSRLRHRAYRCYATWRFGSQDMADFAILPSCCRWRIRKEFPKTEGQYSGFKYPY

Regarding `Cc1nc(C)c(F)c(OC2CCN(C(CNC(=O)c3c(F)cccc3Cl)c3scnc3C(F)F)CC2)n1` (stereo not drawn) [Example 67, 2-Chloro-N-{2-[4-(difluoromethyl)-1,3-thiazol-5-yl]-2-{4-[(5-fluoro-2,6-dimethylpyrimidin-4-yl)oxy]piperidin-1-yl}ethyl}-6-fluorobenzamide], the IC50 was determined as 62.3 nM at P2X7 receptor and 64.5 nM at mP2X7.
The like results for `O=C(NCC(c1scnc1C(F)F)N1CCC(Oc2ccccn2)CC1)c1c(F)cccc1Cl` (stereo not drawn) [Example 1, 2-chloro-N-{2-[4-(difluoromethyl)-1,3-thiazol-5-yl]-2-[4-(pyridin-2-yloxy)piperidin-1-yl]ethyl}-6-fluorobenzamide] were, in that order, 21.7 nM and 53.5 nM.
With `N#Cc1ccnc(OC2CCN(C(CNC(=O)c3c(F)cccc3Cl)c3scnc3C(F)F)CC2)c1` (stereo not drawn) [Example 79, 2-Chloro-N-(2-{4-[(4-cyanopyridin-2-yl)oxy]piperidin-1-yl}-2-[4-(difluoromethyl)-1,3-thiazol-5-yl]ethyl)-6-fluorobenzamide], the IC50 at P2X7 receptor was found to be 30.1 nM; at mP2X7, 41.4 nM.
On the same counts, the results for `N#Cc1cccnc1OCC1CCN(C(CNC(=O)c2c(F)cccc2Cl)c2scnc2C(F)F)CC1` (stereo not drawn) [Example 108, 2-Chloro-N-[2-(4-{[(3-cyanopyridin-2-yl)oxy]methyl}piperidin-1-yl)-2-[4-(difluoromethyl)-1,3-thiazol-5-yl]ethyl]-6-fluorobenzamide] are 25.6 nM and 13.2 nM.
The like results for `O=C(NCC(c1scnc1C(F)F)N1CCC(Oc2nccnc2F)CC1)c1c(F)cccc1Cl` (stereo not drawn) [Example 34, 2-Chloro-N-{2-[4-(difluoromethyl)-1,3-thiazol-5-yl]-2-{4-[(3-fluoropyrazin-2-yl)oxy]piperidin-1-yl}ethyl}-6-fluorobenzamide] were, in that order, 55.5 nM and 174 nM.
The like results for `O=C(NCC(c1scnc1C(F)F)N1CCC(Oc2nc(Cl)cs2)CC1)c1c(F)cccc1Cl` (stereo not drawn) [Example 12, 2-Chloro-N-(2-{4-[(4-chloro-1,3-thiazol-2-yl)oxy]piperidin-1-yl}-2-[4-(difluoromethyl)-1,3-thiazol-5-yl]ethyl)-6-fluorobenzamide] were, in that order, 11.8 nM and 43.9 nM.
With `Cc1cnc(OC2CCN(C(CNC(=O)c3c(F)cccc3Cl)c3scnc3C(F)F)CC2)nc1` (stereo not drawn) [Example 28, 2-Chloro-N-{2-[4-(difluoromethyl)-1,3-thiazol-5-yl]-2-{4-[(5-methylpyrimidin-2-yl)oxy]piperidin-1-yl}ethyl}-6-fluorobenzamide], the IC50 turned out to be 64.4 nM on P2X7 receptor and 206 nM at mP2X7.
The like results for `Cc1nc(F)cc(OC2CCN(C(CNC(=O)c3c(F)cccc3Cl)c3scnc3C(F)F)CC2)n1` (stereo not drawn) [Example 39, 2-Chloro-N-{2-[4-(difluoromethyl)-1,3-thiazol-5-yl]-2-{4-[(6-fluoro-2-methylpyrimidin-4-yl)oxy]piperidin-1-yl}ethyl}-6-fluorobenzamide] were, in that order, 51.1 nM and 44.6 nM.
The like results for `O=C(NCC(c1scnc1C(F)F)N1CCC(Oc2cc(F)ncn2)CC1)c1c(F)cccc1Cl` (stereo not drawn) [Example 31, 2-Chloro-N-{2-[4-(difluoromethyl)-1,3-thiazol-5-yl]-2-{4-[(6-fluoropyrimidin-4-yl)oxy]piperidin-1-yl}ethyl}-6-fluorobenzamide] were, in that order, 61.2 nM and 136 nM.
The like results for `O=C(NCC(c1scnc1C(F)F)N1CCC(COc2nnnn2-c2ccccc2)CC1)c1c(F)cccc1Cl` (stereo not drawn) [Example 97, 2-Chloro-N-{2-[4-(difluoromethyl)-1,3-thiazol-5-yl]-2-(4-{[(1-phenyl-1H-1,2,3,4-tetrazol-5-yl)oxy]methyl}piperidin-1-yl)ethyl}-6-fluorobenzamide] were, in that order, 34 nM and 13.8 nM.
Turning to `N#Cc1ccncc1OCC1CCN(C(CNC(=O)c2c(F)cccc2Cl)c2scnc2C(F)F)CC1` (stereo not drawn) [Example 111, 2-Chloro-N-[2-(4-{[(4-cyanopyridin-3-yl)oxy]methyl}piperidin-1-yl)-2-[4-(difluoromethyl)-1,3-thiazol-5-yl]ethyl]-6-fluorobenzamide], the figures for the IC50 on P2X7 receptor and at mP2X7 were 22.5 nM and 16.1 nM, respectively.
On the same counts, the results for `COc1nccc(OC2CCN(C(CNC(=O)c3c(F)cccc3Cl)c3scnc3C(F)F)CC2)n1` (stereo not drawn) [Example 63, 2-Chloro-N-{2-[4-(difluoromethyl)-1,3-thiazol-5-yl]-2-{4-[(2-methoxypyrimidin-4-yl)oxy]piperidin-1-yl}ethyl}-6-fluorobenzamide] are 41.2 nM and 49.3 nM.
The like results for `N#Cc1ncccc1OC1CCN(C(CNC(=O)c2c(F)cccc2Cl)c2scnc2C(F)F)CC1` (stereo not drawn) [Example 18, 2-Chloro-N-(2-{4-[(2-cyanopyridin-3-yl)oxy]piperidin-1-yl}-2-[4-(difluoromethyl)-1,3-thiazol-5-yl]ethyl)-6-fluorobenzamide] were, in that order, 41.1 nM and 186 nM.
Turning to `O=C(NCC(c1scnc1C(F)F)N1CCC(Oc2ccncc2F)CC1)c1c(F)cccc1Cl` (stereo not drawn) [Example 6, 2-chloro-N-{2-[4-(difluoromethyl)-1,3-thiazol-5-yl]-2-{4-[(3-fluoropyridin-4-yl)oxy]piperidin-1-yl}ethyl}-6-fluorobenzamide], the 50% inhibitory concentration (IC50) on P2X7 receptor was determined as 49.9 nM; at mP2X7, 69.7 nM.
The like results for `O=C(NCC(c1scnc1C(F)F)N1CCC(COc2ccnc(F)n2)CC1)c1c(F)cccc1Cl` (stereo not drawn) [Example 107, 2-Chloro-N-{2-[4-(difluoromethyl)-1,3-thiazol-5-yl]-2-(4-{[(2-fluoropyrimidin-4-yl)oxy]methyl}piperidin-1-yl)ethyl}-6-fluorobenzamide] were, in that order, 55.2 nM and 24.2 nM.
As for `O=C(NCC(c1scnc1C(F)F)N1CCC(COc2nc(Cl)cs2)CC1)c1c(F)cccc1Cl` (stereo not drawn) [Example 83, 2-Chloro-N-[2-(4-{[(4-chloro-1,3-thiazol-2-yl)oxy]methyl}piperidin-1-yl)-2-[4-(difluoromethyl)-1,3-thiazol-5-yl]ethyl]-6-fluorobenzamide], the figures for the IC50 on P2X7 receptor and at mP2X7 were 13 nM and 32.7 nM, respectively.
Take `N#Cc1cccc(OCC2CCN(C(CNC(=O)c3c(F)cccc3Cl)c3scnc3C(F)F)CC2)n1` (stereo not drawn) [Example 109, 2-Chloro-N-[2-(4-{[(6-cyanopyridin-2-yl)oxy]methyl}piperidin-1-yl)-2-[4-(difluoromethyl)-1,3-thiazol-5-yl]ethyl]-6-fluorobenzamide]: the figures for the IC50 at P2X7 receptor and at mP2X7 were 24.9 nM and 19.2 nM, respectively.
The like results for `Cc1nsc(OC2CCN(C(CNC(=O)c3c(F)cccc3Cl)c3scnc3C(F)F)CC2)c1C#N` (stereo not drawn) [Example 53, 2-Chloro-N-(2-{4-[(4-cyano-3-methyl-1,2-thiazol-5-yl)oxy]piperidin-1-yl}-2-[4-(difluoromethyl)-1,3-thiazol-5-yl]ethyl)-6-fluorobenzamide] were, in that order, 41.5 nM and 38.7 nM.
For the compound `O=C(NCC(c1scnc1C(F)F)N1CCC(Oc2cnccn2)CC1)c1c(F)cccc1Cl` (stereo not drawn) [Example 70, 2-Chloro-N-{2-[4-(difluoromethyl)-1,3-thiazol-5-yl]-2-[4-(pyrazin-2-yloxy)piperidin-1-yl]ethyl}-6-fluorobenzamidev], the IC50 came to 50 nM on P2X7 receptor and 101 nM on mP2X7.
Regarding `Cc1ncnc(OC2CCN(C(CNC(=O)c3c(F)cccc3Cl)c3scnc3C(F)F)CC2)c1F` (stereo not drawn) [Example 56, 2-Chloro-N-{2-[4-(difluoromethyl)-1,3-thiazol-5-yl]-2-{4-[(5-fluoro-6-methylpyrimidin-4-yl)oxy]piperidin-1-yl}ethyl}-6-fluorobenzamide], the values for the IC50 at P2X7 receptor and on mP2X7 were 53.8 nM and 82 nM, respectively.
Regarding `COCCc1nsc(OC2CCN(C(CNC(=O)c3c(F)cccc3Cl)c3scnc3C(F)F)CC2)n1` (stereo not drawn) [Example 23, 2-Chloro-N-{2-[4-(difluoromethyl)-1,3-thiazol-5-yl]-2-(4-{[3-(2-methoxyethyl)-1,2,4-thiadiazol-5-yl]oxy}piperidin-1-yl)ethyl}-6-fluorobenzamide], the half-inhibitory concentration (IC50) is 73.6 nM at P2X7 receptor and 183 nM on mP2X7.
The like results for `N#Cc1cnccc1OC1CCN(C(CNC(=O)c2c(F)cccc2Cl)c2scnc2C(F)F)CC1` (stereo not drawn) [Example 50, 2-Chloro-N-(2-{4-[(3-cyanopyridin-4-yl)oxy]piperidin-1-yl}-2-[4-(difluoromethyl)-1,3-thiazol-5-yl]ethyl)-6-fluorobenzamide] were, in that order, 89 nM and 224 nM.
On the same counts, the results for `O=C(NCC(c1scnc1C(F)F)N1CCC(Oc2nccc3ncccc23)CC1)c1c(F)cccc1Cl` (stereo not drawn) [Example 49, 2-Chloro-N-{2-[4-(difluoromethyl)-1,3-thiazol-5-yl]-2-[4-(1,6-naphthyridin-5-yloxy)piperidin-1-yl]ethyl}-6-fluorobenzamide] are 19.4 nM and 19.5 nM.
On the same counts, the results for `N#Cc1cccnc1OC1CCN(C(CNC(=O)c2c(F)cccc2Cl)c2scnc2C(F)F)CC1` (stereo not drawn) [Example 36, 2-Chloro-N-(2-{4-[(3-cyanopyridin-2-yl)oxy]piperidin-1-yl}-2-[4-(difluoromethyl)-1,3-thiazol-5-yl]ethyl)-6-fluorobenzamide] are 53.8 nM and 126 nM.

What is called IC50 is the concentration needed to halve the response being measured.

Values taken from US20240034737A1, “Heterocyclic Derivatives as P2X7 Receptor Antagonists” (BREYE THERAPEUTICS APS, priority 2020, published 2024).
